Data on 29 molecules can be found in patent publication US11186564B2, “Dual NAV1.2/5HT2a inhibitors for treating CNS disorders” (Sunovion Pharmaceuticals Inc., priority 2016, dated 2021).

pIC50: −log10 of the molar value.

T1 sequence (P28223 whole entry): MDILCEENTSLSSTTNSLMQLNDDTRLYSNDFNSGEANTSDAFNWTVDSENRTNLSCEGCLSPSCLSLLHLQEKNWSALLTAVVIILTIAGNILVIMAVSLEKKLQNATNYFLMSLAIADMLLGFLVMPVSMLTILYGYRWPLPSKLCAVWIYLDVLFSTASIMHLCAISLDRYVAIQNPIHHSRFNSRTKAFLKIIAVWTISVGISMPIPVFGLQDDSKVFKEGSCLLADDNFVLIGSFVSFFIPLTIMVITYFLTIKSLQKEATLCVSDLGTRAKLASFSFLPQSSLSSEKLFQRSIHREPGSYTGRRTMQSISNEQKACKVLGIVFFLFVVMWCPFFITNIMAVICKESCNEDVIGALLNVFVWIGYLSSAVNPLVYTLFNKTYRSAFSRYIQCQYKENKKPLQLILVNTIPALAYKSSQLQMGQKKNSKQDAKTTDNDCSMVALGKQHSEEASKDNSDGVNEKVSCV

One test has as its target T1, recombinant human serotonin receptor 5-HT2A (Homo sapiens, UniProt P28223).
T1 construct: expressed in transfected cells; method B: loaded with Ca2+ dye
In words: 5-HT2A antagonist Ca2+ assay in CHO-K1 cells (method A aequorin luminescence / method B FLIPR fluorescence). The following applies: 5HT2A IC50, μM, antagonist mode vs EC80 of reference agonist, method A or B. Format: cell-based. The source says:
The methods utilized to assess the inhibitory activity of compounds on recombinant human serotonin receptor 5-HT2A was based upon previously published approaches [Jerman J C, Brough S J, Gager T, Wood M, Coldwell M C, Smart D, Middlemiss D N. Pharmacological characterisation of human 5-HT2 receptor subtypes. European Journal of Pharmacology 2001 Feb. 23; 414(1):23-30; Le Poul E, Hisada S, Mizuguchi Y, Dupriez V J, Burgeon E, Detheux M. Adaptation of aequorin functional assay to high throughput screening. J Biomolecular Screening 2002 February; 7(1):57-65.] The 5-HT2A receptor signals through Gq-phospholipase signaling cascade, which leads to a transient increase in free intracellular […] concentration. Both 5-HT2A assay methods rely upon monitoring these changes in Ca^2+ concentration.
In method A [Le Poul E, Hisada S, Mizuguchi Y, Dupriez V J, Burgeon E, Detheux M. (2002)], CHO-K1 cells engineered to stably co-express both recombinant human 5-HT2A and mitochondrial apoaequorin are used. […] For agonist testing, 50 microliters of cell suspension is mixed with 50 microliters of a solution containing test compound or reference agonist in a 96-well standard geometry microtiter plate. The resulting emission of light was recorded using a Hamamatsu Functional Drug Screening System 6000 (FDSS 6000) luminometer. For antagonist testing, 100 microliters of the solution of reference agonist (to yield an agonist concentration, EC80, sufficient to cause the cells to generate an 80% maximal luminescence response in the absence of any antagonist) is injected into the mix of cells and test compound, 15 minutes after the first injection. The resulting emission of light is recorded using Hamamatsu FDSS 6000 luminometer. IC50 values are calculated (from compound concentration dependent inhibition of agonist-induced 5-HT2A-dependent light emission) by non-linear least squares regression of the data (percent inhibition) onto equation (1) above.
In method B [Jerman J C, Brough S J, Gager T, Wood M, Coldwell M C, Smart D, Middlemiss D N. (2001)], CHO-K1 cells which had been engineered to stably co-express recombinant human 5-HT2A are used in assay done similarly to method A. In method B, the cells are loaded with a fluorogenic Ca^2+ indicator dye by pre-incubation. Addition of the reference agonist serotonin causes a transient increase in fluorescence in a suspension of the loaded cells, which can be detected using the Molecular Devices fluorometric imaging plate reader (FLIPR), a high-throughput platform for 96-well cell-based assays. Addition of test compounds that are 5-HT2A antagonists, prior to the addition of the agonist (to yield an agonist concentration, EC80, sufficient to cause the cells to generate an 80% maximal fluorescence response in the absence of any antagonist), reduces the amount of fluorescence detected by the FLIPR upon agonist addition. IC50 values are calculated (from compound concentration dependent inhibition of agonist-induced 5-HT2A-dependent fluorescence) by non-linear least squares regression of the data (percent inhibition) onto equation (1) above.
Regarding `c1ccc2c(c1)CC(CN1CCC3(CC1)OCc1ccccc13)C2` [Example 392, 1′-((2,3-dihydro-1H-inden-2-yl)methyl)-3H-spiro[isobenzofuran-1,4′-piperidine]], the IC50 came to 1.59 µM.

The same test, now with this note: antagonist mode vs EC80 of reference agonist, method A or B, read-out: 5HT2A IC50.
Take `OC(COC1CCCCC1)CN1CCCC12CCCN(c1ccccc1)C2` (centres unmarked) [Example 353, 1-(cyclohexyloxy)-3-(7-phenyl-1,7-diazaspiro[4.5]decan-1-yl)propan-2-ol]: the pIC50 was under 4.78.

Take `OC(COC1COCc2ccccc21)CN1CCC(Oc2ccccc2)CC1` (centres unmarked) [Example 239, 1-(isochroman-4-yloxy)-3-(4-phenoxypiperidin-1-yl)propan-2-ol]: the pIC50 is 5.45.

Regarding `O[C@@H](CO[C@@H]1CCCc2ccccc21)CN1CCN(Cc2ccccc2)CC1` [Example 84, (R)-1-(4-benzylpiperazin-1-yl)-3-(((R)-1,2,3,4-tetrahydronaphthalen-1-yl)oxy)propan-2-ol], the pIC50 was under 4.78.

On to `OC(CO[C@@H]1CCc2ccccc21)CN1CC[C@H](Oc2cccc(F)c2)C1` (stereo partly drawn) [Example 37, 1-(((R)-2,3-dihydro-1H-inden-1-yl)oxy)-3-((S)-3-(3-fluorophenoxy)pyrrolidin-1-yl)propan-2-ol], for which the pIC50 was 5.05.

As to `O[C@H](COC1CCCCC1)CN1[C@@H]2CC[C@H]1CN(c1nccs1)C2` [Example 292, (S)-1-(cyclohexyloxy)-3-((1R,5S)-3-(thiazol-2-yl)-3,8-diazabicyclo[3.2.1]octan-8-yl)propan-2-ol], the pIC50 is under 5.00.

With `c1cnc(OC2CCN(CC3Cc4cccnc4C3)CC2)nc1` (centres unmarked) [Example 157, 6-((4-(pyrimidin-2-yloxy)piperidin-1-yl)methyl)-6,7-dihydro-5H-cyclopenta[b]pyridine], the pIC50 was under 5.00.

With `COCc1cccc(OC2CCN(CC3CCOc4ccccc43)CC2)c1` (centres unmarked) [Example 163, 1-(chroman-4-ylmethyl)-4-(3-(methoxymethyl)phenoxy)piperidine], the negative logarithm of the IC50 (pIC50) is 6.59.

As for `O[C@H](COC1CCCCC1)CN1CCC(Oc2ccccc2)CC1` [Example 233, (S)-1-(cyclohexyloxy)-3-(4-phenoxypiperidin-1-yl)propan-2-ol], the pIC50 was 7.30.

Consider `O[C@@H](COC1CCCCC1)CN1CC2(CC(Oc3ccccc3)CO2)C1` (stereo partly drawn) [Example 372, (2R)-1-(cyclohexyloxy)-3-(7-phenoxy-5-oxa-2-azaspiro[3.4]octan-2-yl)propan-2-ol], for which the pIC50 was 7.05.

For `O[C@@H](COC1CCCCC1)CN1CC[C@@H]2C[C@H]1CN2c1ccccc1` [Example 327, (R)-1-(cyclohexyloxy)-3-((1S,5R)-6-phenyl-2,6-diazabicyclo[3.2.1]octan-2-yl)propan-2-ol], the pIC50 was under 5.50.

Turning to `COc1cccc(O[C@H]2CCN(CCN3CCc4ccccc4C3=O)C2)c1` [Example 22, (S)-2-(2-(3-(3-methoxyphenoxy)pyrrolidin-1-yl)ethyl)-3,4-dihydroisoquinolin-1(2H)-one], the pIC50 was 5.63.

Turning to `O[C@@H](COC1CCCCC1)CN1CCC[C@@H](Oc2ccc(F)cc2)C1` [Example 267, (R)-1-(cyclohexyloxy)-3-((R)-3-(4-fluorophenoxy)piperidin-1-yl)propan-2-ol], the negative-log IC50 (pIC50) was 4.98.

On to `c1ccc(OCCN2CCC(Oc3ccc4cccnc4c3)CC2)cc1` [Example 231, 7-((1-(2-phenoxyethyl)piperidin-4-yl)oxy)quinoline], for which the pIC50 is 6.10.

Take `CC1(C)Oc2ccccc2C1CN1CCC(Oc2ccc(F)cc2)CC1` (centres unmarked) [Example 135, 1-((2,2-dimethyl-2,3-dihydrobenzofuran-3-yl)methyl)-4-(4-fluorophenoxy)piperidine]: the negative logarithm of the IC50 (pIC50) is 6.92.

`c1ccc(CCN2C[C@@H]3C[C@H](C2)N(c2ccccc2)C3)cc1` [Example 330, (1S,5R)-3-phenethyl-6-phenyl-3,6-diazabicyclo[3.2.1]octane]: the pIC50 was under 4.78.

In the case of `COc1ccccc1O[C@H]1CCN(CCN2CCc3ccccc3C2=O)[C@@H]1C` [Example 18, 2-(2-((2R,3S)-3-(2-methoxyphenoxy)-2-methylpyrrolidin-1-yl)ethyl)-3,4-dihydroisoquinolin-1(2H)-one], the pIC50 is 7.70.

Regarding `c1ccc2c(c1)CC1(CCN(CC3Cc4ccncc4C3)CC1)O2` (centres unmarked) [Example 398, 1′-((6,7-dihydro-5H-cyclopenta[c]pyridin-6-yl)methyl)-3H-spiro[benzofuran-2,4′-piperidine]], the pIC50 was 5.02.

On to `COCc1ccc(OC2CCN(CC3CCc4ncccc43)CC2)cc1` (centres unmarked) [Example 127, 5-((4-(4-(methoxymethyl)phenoxy)piperidin-1-yl)methyl)-6,7-dihydro-5H-cyclopenta[b]pyridine], for which the pIC50 was under 4.92.

On to `c1ccc2c(c1)CC1(CCN(CC3COc4ccccc43)CC1)O2` (centres unmarked) [Example 395, 1′-((2,3-dihydrobenzofuran-3-yl)methyl)-3H-spiro[benzofuran-2,4′-piperidine]], for which the pIC50 was under 5.00.

As to `O[C@@H](COC1CCCCC1)CN1C[C@@H]2C[C@H](C1)N(c1ccccc1)C2` [Example 332, (R)-1-(cyclohexyloxy)-3-((1S,5R)-6-phenyl-3,6-diazabicyclo[3.2.1]octan-3-yl)propan-2-ol], the pIC50 was under 4.78.

Consider `COc1ccccc1CN1CCC2(CCc3ccccc3O2)CC1` [Example 416, l′-(2-methoxybenzyl) spiro[chromane-2,4′-piperidine]], for which the pIC50 was 5.98.

Regarding `OC(COc1ccccc1)CN1CCCC12CCN(c1ccccc1)CC2` (centres unmarked) [Example 352, 1-phenoxy-3-(8-phenyl-1,8-diazaspiro[4.5]decan-1-yl)propan-2-ol], the negative logarithm of the IC50 (pIC50) is under 5.28.

With `CC1(OCC(O)CN2CCN(c3ccccc3)CC2)COc2ccccc21` (centres unmarked) [Example 79, 1-((3-methyl-2,3-dihydrobenzofuran-3-yl)oxy)-3-(4-phenylpiperazin-1-yl)propan-2-ol], the pIC50 was 6.44.

Regarding `O=C1c2ccccc2CCN1CCN1CC[C@@H]2C[C@H]1CN2c1ccccc1` [Example 324, 2-(2-((1S,5R)-6-phenyl-2,6-diazabicyclo[3.2.1]octan-2-yl)ethyl)-3,4-dihydroisoquinolin-1(2H)-one], the negative-log IC50 (pIC50) was under 5.50.

Turning to `c1ccc(N2C[C@@H]3C[C@H]2CCN3CCC2CCc3cccnc32)cc1` (stereo partly drawn) [Example 323, 7-(2-((1S,5R)-6-phenyl-2,6-diazabicyclo[3.2.1]octan-2-yl)ethyl)-6,7-dihydro-5H-cyclopenta[b]pyridine], the negative-log IC50 (pIC50) was under 5.50.

As to `COc1ccccc1O[C@@H]1CCN(CCN2CCc3ccccc3C2=O)[C@H]1C` [Example 17, 2-(2-((2S,3R)-3-(2-methoxyphenoxy)-2-methylpyrrolidin-1-yl)ethyl)-3,4-dihydroisoquinolin-1(2H)-one], the pIC50 was 6.40.

Consider `c1ccc(N2C[C@@H]3C[C@H]2CCN3CC2Cc3cccnc3C2)cc1` (stereo partly drawn) [Example 320, 6-(((1S,5R)-6-phenyl-2,6-diazabicyclo[3.2.1]octan-2-yl)methyl)-6,7-dihydro-5H-cyclopenta[b]pyridine], for which the pIC50 is under 5.00.

For `COc1ccccc1O[C@@H]1CCN(CC2Cc3cccnc3C2)[C@@H](C)C1` (stereo partly drawn) [Example 149, 6-(((2S,4R)-4-(2-methoxyphenoxy)-2-methylpiperidin-1-yl)methyl)-6,7-dihydro-5H-cyclopenta[b]pyridine], the pIC50 is 6.52.
